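These data come from cells grown in 96-well plates and exposed to compound for 48 hours at five concentrations. Abbreviation: GI50, concentration required for 50% inhibition of growth.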 Calls of active or inactive are those of the source. Rule as the data show it: active = GI50 up to about 1.1 µM and inactive = higher.
Legend:
Experiment in all cases: DTP human tumour cell line panel, 48 h
[1] = system: 786-0
[2] = system: A549
[3] = system: ACHN
[4] = system: CAKI-1
[5] = system: HCC 2998
[6] = system: HOP-92
[7] = system: HT-29
[8] = system: IGROV-1
[9] = system: K562
[10] = system: Malme-3M
[11] = system: NCI-H23
[12] = system: RXF 393
[13] = system: SF-295
[14] = system: SK-MEL-2
[15] = system: SK-MEL-5
[16] = system: TK-10
[17] = system: UACC-62
[18] = system: RPMI-8226

| Compound | GI50 [1] | GI50 [2] | GI50 [3] | GI50 [4] | GI50 [5] | GI50 [6] | GI50 [7] | GI50 [8] | GI50 [9] | GI50 [10] | GI50 [11] | GI50 [12] | GI50 [13] | GI50 [14] | GI50 [15] | GI50 [16] | GI50 [17] | GI50 [18] |
| --- | --- | --- | --- | --- | --- | --- | --- | --- | --- | --- | --- | --- | --- | --- | --- | --- | --- | --- |
| [O-][Cl+3]([O-])([O-])O.c1ccc(/N=c2\nc(N3CCOCC3)ss2)cc1 | 16.4 µM (inactive) | 33.4 µM (inactive) | 16.5 µM (inactive) | 20.2 µM (inactive) | 21.1 µM (inactive) | 21.9 µM (inactive) | 20 µM (inactive) | 20.1 µM (inactive) | 16.5 µM (inactive) | 14.8 µM (inactive) | 29.5 µM (inactive) | 17.3 µM (inactive) | 18.7 µM (inactive) | 17.9 µM (inactive) | 34.2 µM (inactive) | 46.5 µM (inactive) | 13.8 µM (inactive) | – |
| CC(=O)OCc1c2ccccc2c(C)c2c1cc(F)c1ccccc12 | 30.1 µM (inactive) | 32.4 µM (inactive) | 17.5 µM (inactive) | 31 µM (inactive) | 25.9 µM (inactive) | 40.6 µM (inactive) | 17.7 µM (inactive) | 22.5 µM (inactive) | 21.2 µM (inactive) | 52.2 µM (inactive) | 23.1 µM (inactive) | 25.6 µM (inactive) | 29.6 µM (inactive) | 15.2 µM (inactive) | 25.5 µM (inactive) | > 100 µM (inactive) | 20.7 µM (inactive) | – |
| CC(=O)C(CN(C(C)C)C(C)C)C(c1ccccc1)c1c(O)c2ccccc2oc1=O (stereo unspecified) | > 100 µM (inactive) | > 100 µM (inactive) | > 100 µM (inactive) | > 100 µM (inactive) | – | – | > 100 µM (inactive) | > 100 µM (inactive) | > 100 µM (inactive) | > 100 µM (inactive) | > 100 µM (inactive) | 60.1 µM (inactive) | > 100 µM (inactive) | > 100 µM (inactive) | > 100 µM (inactive) | > 100 µM (inactive) | > 100 µM (inactive) | > 100 µM (inactive) |
| CCOC(=O)CCC(=O)C1c2cccc(O)c2C(=O)c2c(O)cc(C)cc21 (stereo unspecified) | 1.32 µM (inactive) | 0.695 µM (active) | 0.993 µM (active) | 1.79 µM (inactive) | 0.507 µM (active) | 1.46 µM (inactive) | 2.47 µM (inactive) | 0.289 µM (active) | 0.429 µM (active) | 1.34 µM (inactive) | 0.962 µM (active) | 0.391 µM (active) | 0.332 µM (active) | 0.344 µM (active) | 0.676 µM (active) | 1.87 µM (inactive) | 0.434 µM (active) | 1.01 µM (active) |
| COc1ccc(Cn2c(C)nc3c2C(=O)c2ccccc2C3=O)cc1 | 5.4 µM (inactive) | 8.61 µM (inactive) | 10.3 µM (inactive) | – | 18.8 µM (inactive) | – | 4.94 µM (inactive) | 9.86 µM (inactive) | 3.2 µM (inactive) | 9.46 µM (inactive) | 7 µM (inactive) | 14 µM (inactive) | 9.48 µM (inactive) | 13.2 µM (inactive) | 7.71 µM (inactive) | 11 µM (inactive) | 4.58 µM (inactive) | – |
| Cc1ccc(S(=O)OC23CC4CC(CC(C4)C2)C3)cc1 (stereo unspecified) | > 100 µM (inactive) | > 100 µM (inactive) | > 100 µM (inactive) | > 100 µM (inactive) | > 100 µM (inactive) | > 100 µM (inactive) | > 100 µM (inactive) | 29.4 µM (inactive) | > 100 µM (inactive) | > 100 µM (inactive) | > 100 µM (inactive) | 70.1 µM (inactive) | > 100 µM (inactive) | – | > 100 µM (inactive) | > 100 µM (inactive) | > 100 µM (inactive) | 41.4 µM (inactive) |
| COC(=O)C(=O)C(CC(=O)Nc1cc(Cl)ccc1Cl)C(=O)OC (stereo unspecified) | > 100 µM (inactive) | > 100 µM (inactive) | > 100 µM (inactive) | > 100 µM (inactive) | > 100 µM (inactive) | > 100 µM (inactive) | > 100 µM (inactive) | > 100 µM (inactive) | > 100 µM (inactive) | > 100 µM (inactive) | > 100 µM (inactive) | > 100 µM (inactive) | > 100 µM (inactive) | > 100 µM (inactive) | > 100 µM (inactive) | > 100 µM (inactive) | > 100 µM (inactive) | > 100 µM (inactive) |
| Cc1cccc2c1c1ccc3c(c1n2C)C(=O)C=CC3=O | 1.94 µM (inactive) | 18.9 µM (inactive) | 7.73 µM (inactive) | 3.2 µM (inactive) | 18.2 µM (inactive) | 2.08 µM (inactive) | 3.47 µM (inactive) | 18.3 µM (inactive) | 1.95 µM (inactive) | 4.33 µM (inactive) | 13.5 µM (inactive) | 3.48 µM (inactive) | 16.3 µM (inactive) | 15.6 µM (inactive) | 14.8 µM (inactive) | 2.79 µM (inactive) | 13.2 µM (inactive) | 2.04 µM (inactive) |
| COc1ccc2[nH]c3c([N+](=O)[O-])ccc(NCCCN(C)C)c3/c(=N/CCCN(C)C)c2c1 | 0.94 µM (active) | 1.74 µM (inactive) | – | 2.07 µM (inactive) | 1.24 µM (inactive) | 3.33 µM (inactive) | 1.12 µM (inactive) | 1.86 µM (inactive) | 1.42 µM (inactive) | 9.75 µM (inactive) | 1.56 µM (inactive) | 0.631 µM (active) | 1.63 µM (inactive) | – | 1.9 µM (inactive) | 2.36 µM (inactive) | > 10 µM (inactive) | 0.635 µM (active) |
| COc1ccc(C2=C(Cl)c3cc(OC)c(OC)cc3C2)cc1OC | > 100 µM (inactive) | > 100 µM (inactive) | > 100 µM (inactive) | – | > 100 µM (inactive) | > 100 µM (inactive) | > 100 µM (inactive) | > 100 µM (inactive) | > 100 µM (inactive) | > 100 µM (inactive) | > 100 µM (inactive) | 24.4 µM (inactive) | > 100 µM (inactive) | – | > 100 µM (inactive) | – | > 100 µM (inactive) | > 100 µM (inactive) |
| Cc1ccc(/C=N\NC2c3cc(Cl)ccc3Nc3nc(O)nc(C)c32)cc1 (stereo unspecified) | > 100 µM (inactive) | > 100 µM (inactive) | > 100 µM (inactive) | – | 95.7 µM (inactive) | 43.3 µM (inactive) | > 100 µM (inactive) | 84.3 µM (inactive) | 56.5 µM (inactive) | > 100 µM (inactive) | > 100 µM (inactive) | > 100 µM (inactive) | > 100 µM (inactive) | > 100 µM (inactive) | – | > 100 µM (inactive) | > 100 µM (inactive) | 45 µM (inactive) |
| COC(=O)C1=C(c2cc(OC)c(OC)c(OC)c2)OC(c2cc(OC)c(OC)c(OC)c2)C1 (stereo unspecified) | 24.8 µM (inactive) | 36.5 µM (inactive) | 20.2 µM (inactive) | 21.8 µM (inactive) | 20.1 µM (inactive) | 10.7 µM (inactive) | 24.3 µM (inactive) | 20.1 µM (inactive) | 28.8 µM (inactive) | 31.3 µM (inactive) | 19.5 µM (inactive) | 33.9 µM (inactive) | 20.5 µM (inactive) | – | 16 µM (inactive) | 25 µM (inactive) | 12.8 µM (inactive) | 23.1 µM (inactive) |
| Cc1ccc(N2C(=O)/C(=C3\Sc4c(nc(C)n(C)c4=O)N3c3ccccc3)SC2=S)cc1 | 36.9 µM (inactive) | 49.2 µM (inactive) | > 100 µM (inactive) | 41.3 µM (inactive) | > 100 µM (inactive) | 33.8 µM (inactive) | > 100 µM (inactive) | 48 µM (inactive) | > 100 µM (inactive) | – | > 100 µM (inactive) | 18.7 µM (inactive) | 52.7 µM (inactive) | > 100 µM (inactive) | 83.8 µM (inactive) | 32.8 µM (inactive) | 45.7 µM (inactive) | > 100 µM (inactive) |
| COC(=O)C1=CC2C=CC(C1C(=O)OC)C1C(C(=O)OC)=C(C(=O)OC)C(C(=O)OC)=C(C(=O)OC)C21OC (stereo unspecified) | > 100 µM (inactive) | > 100 µM (inactive) | > 100 µM (inactive) | > 100 µM (inactive) | > 100 µM (inactive) | > 100 µM (inactive) | > 100 µM (inactive) | > 100 µM (inactive) | – | > 100 µM (inactive) | > 100 µM (inactive) | > 100 µM (inactive) | > 100 µM (inactive) | > 100 µM (inactive) | > 100 µM (inactive) | > 100 µM (inactive) | > 100 µM (inactive) | > 100 µM (inactive) |
| Nc1ccc(C(=O)NN2C(=O)C(Cl)C2c2ccc(O)cc2)cc1 (stereo unspecified) | 17.5 µM (inactive) | 56.9 µM (inactive) | 35.2 µM (inactive) | 25.1 µM (inactive) | – | 24.5 µM (inactive) | 24.7 µM (inactive) | 17.8 µM (inactive) | 21.3 µM (inactive) | 18.5 µM (inactive) | 17.9 µM (inactive) | – | 33 µM (inactive) | 15.3 µM (inactive) | 17.2 µM (inactive) | 44.3 µM (inactive) | 14.9 µM (inactive) | 49.1 µM (inactive) |
| CC(=O)N1CCN(c2ccc(OCC3COC(Cn4ccnc4)(c4ccc(Cl)cc4Cl)O3)cc2)CC1 (stereo unspecified) [KETOCONAZOLE] | 36 µM (inactive) | 27.3 µM (inactive) | 36.2 µM (inactive) | 35.5 µM (inactive) | 28.4 µM (inactive) | 41.7 µM (inactive) | 18.9 µM (inactive) | 38.7 µM (inactive) | 28.7 µM (inactive) | 28.8 µM (inactive) | – | 22.2 µM (inactive) | – | 17.4 µM (inactive) | 12.2 µM (inactive) | 37.8 µM (inactive) | 15.4 µM (inactive) | 35.9 µM (inactive) |

Source: ChEMBL document CHEMBL1201862, “PubChem BioAssay data set” (2004)
